{"source": "patent US11939361B2", "about": "“Compositions of peptide inhibitors of Interleukin-23 receptor” (Janssen Pharmaceutica NV, priority 2020, dated 2024)", "key": {"[1]": {"system": "IL-23-induced IL-17A secretion", "assay": "In vitro rat whole blood assay of IL-23-induced IL-17A secretion", "format": "cell-based"}, "[2]": {"system": "IL-23 induced expression of IL-17A, IL-17F, and IL-22", "assay": "Rat skin gene expression downstream of intradermal IL-23", "format": "in vivo, Sprague-Dawley rats", "method": "Ear inflammation was induced in Sprague-Dawley rats by daily intradermal injection of recombinant rat IL-23 on study days 0-3. Treatment with the peptide of SEQ ID NO: 1 (dose response by oral gavage; 1, 3, 10, 30, 100, and 300 mg/kg, twice a day) was initiated prophylactically starting one day prior to and continued through day 3 after induction of inflammation. All rats were humanely euthanized on day 4. An anti-IL-23 monoclonal antibody (administered intraperitoneally on days −1 and day 3) was included in all studies as a positive control and comparator.\nTest article was dissolved into phosphate buffer at the appropriate concentrations and aliquoted for each dose and stored at 4° C. Retentions of each dose formulation were obtained after the initial preparation and following the final dose on day 3 into Eppendorf tubes and stored at −80° C. for bioanalysis of test article by LCMS.\nRecombinant rat IL-23 was diluted with PBS to a concentration of 75 μg/mL, divided into 2.0 mL aliquots, and stored at −80° C. Daily from day 0 through day 3, rats were anesthetized with isoflurane and IL-23 was intradermally injected (i.d.) into the right ear (1.5 μg in a volume of 20 μL). In the control group, 20 μL of PBS was injected.\nStarting the morning prior to IL-23 injection through the evening of day 3, rats were dosed with either vehicle (phosphate buffer) or the peptide of SEQ ID NO: 1 compound twice daily (approximately 10 hours apart between doses during the day) by oral gavage (p.o.) in a volume of 5 mL/kg. In one experiment, the peptide of SEQ ID NO: 1 was also administered subcutaneously (s.c.) in a volume of 5 mL/kg.\nAnti-IL-23p19 antibody or isotype antibody was administered via intraperitoneal injection (i.p.) in a volume of 5 mL/kg on days −1 and 3.\nAt the end of the study, four days after induction with IL-23 (approximately 16 hours after the evening dose on day 3), animals were euthanized by CO2 asphyxiation. The ear tissue was weighed, snap frozen, and stored at −80° C. for gene expression analysis of inflammatory genes (IL-22, IL-17A, IL-17F, TNF). […]"}, "[3]": {"assay": "Colon and colonic content concentrations in rat TNBS colitis model (LC-MS/MS)", "format": "in vivo, Sprague Dawley rats", "details": "Sprague Dawley, po", "method": "[…] In all studies, the peptide of SEQ ID NO: 1 was dosed starting 2 days prior to TNBS induction through day 6, with euthanasia scheduled on day 7.\nAt the end of each study, colonic content and colon tissue samples were collected from each animal and analyzed for drug concentrations by LC-MS/MS."}, "[4]": {"system": "IL-23 induced IFNγ production", "assay": "Ex vivo whole blood IL-23-induced IFNγ production assay, FIH MAD cohorts", "format": "in vivo", "method": "An ex vivo whole blood IL-23 induced IFNγ assay was used to evaluate the systemic pharmacodynamic activity of the orally administered peptide of SEQ ID NO: 1 in the first-in-human study. […] On Days 1 and 10, when the assay was performed, subjects received their dose of placebo or peptide of SEQ ID NO: 1 following an overnight fast of approximately 10 hours and remained fasted for approximately 4 hours following dosing. After oral dosing on days 1 and 10, whole blood from the subjects was stimulated ex vivo with either IL-2 (10 ng/mL) and IL-18 (20 ng/mL) or IL-2 (10 ng/mL), IL-18 (20 ng/mL), and IL-23 (0.5 ng/mL) in TruCulture™ tubes (Rules Based Medicine, Q^2 solutions company) for stimulation of IFNγ production. The production of IFNγ is expected to be suppressed if IL-23R signaling is inhibited. Therefore, lower IFNγ production in the assay is associated with sufficient exposure to achieve systemic pharmacodynamic (PD) activity of orally dosed peptide of SEQ ID NO: 1.\nWhole blood was collected in TruCulture™ tubes according to manufacturer instructions, the tubes were incubated at 37° C. in a block thermostat for 24 hours (±1 hour). Following incubation at 37° C., supernatants were harvested according to TruCultube™ tube manufacturer instructions (Rules Based Medicine, Q^2 solutions company). An ELISA assay was used to quantify the levels of IFNg in the supernatants."}, "[5]": {"details": "in vivo"}, "[6]": {"details": "human, 25 mg, 100 mg, 300 mg and 1000 mg cohorts, oral once a day"}}, "note": "“And” between values parts separate entries of the source, which are not always exact repeats. Equal entries are not always repeated. Where two headings read alike, the source gives them in different places.", "data": [{"smiles": "CC(=O)NCCCC[C@@H]1NC(=O)[C@H](Cc2c[nH]c3c(C)cccc23)NC(=O)[C@H]([C@@H](C)O)NC(=O)[C@H](CC(N)=O)NC(=O)[C@@H](NC(C)=O)C(C)(C)SSC(C)(C)[C@@H](C(=O)N[C@@H](Cc2ccc(OCCN)cc2)C(=O)N[C@@H](Cc2ccc3ccccc3c2)C(=O)NC2(C(=O)N[C@@H](CCC(=O)O)C(=O)N[C@@H](CC(N)=O)C(=O)N[C@@H](Cc3cccnc3)C(=O)N(C)CC(N)=O)CCOCC2)NC1=O", "note": "[SEQ ID NO: 1, Ac-[Pen]*—N-T-[W(7-Me)]-[Lys(Ac)]-[Pen]*-Phe[4-(2-aminoethoxy)]-[2-Nal]-[THP]-E-N-[3-Pal]-Sarc-NH2]", "values": [{"measurement": "IC50", "setting": "[1]; read-out: IC50 at 4 ng/mL IL-23 stimulation, individual vehicle-dosed rats, plus 4 ng/mL IL-1β, listed as peptide of SEQ ID NO: 1", "value": "0.012 nM and 0.027 nM and 0.045 nM and 0.013 nM and 0.06 nM and 0.066 nM"}, {"measurement": "IC50", "setting": "[1]; read-out: IC50 at 4 ng/mL IL-23 stimulation, pooled blood (n = 6 naïve rats), plus 4 ng/mL IL-1β, listed as peptide of SEQ ID NO: 1", "value": "0.1 nM and 0.11 nM"}, {"measurement": "IC50", "setting": "[1]; read-out: IC50 at 20 ng/mL IL-23 stimulation, individual vehicle-dosed rats, listed as peptide of SEQ ID NO: 1", "value": "0.24 nM and 0.16 nM and 0.22 nM and 0.23 nM and 0.34 nM and 0.29 nM"}, {"measurement": "IC50", "setting": "[1]; read-out: Mean IC50 at 4 ng/mL IL-23 stimulation, in vitro rat whole blood, mean of all experiments", "value": "0.054 ± 0.034", "unit": "nM"}, {"measurement": "IC50", "setting": "[1]; read-out: Mean IC50 at 20 ng/mL IL-23 stimulation, in vitro rat whole blood, n=6 rats", "value": "0.25 ± 0.062", "unit": "nM"}, {"measurement": "median IL-17A expression in skin", "setting": "[2]; all tested doses (1-300 mg/kg b.i.d., oral)", "value": "reduced"}, {"measurement": "reduction of median IL-17A expression in skin", "setting": "[2]; doses of 10 mg/kg (b.i.d.) or higher", "value": "comparable degree as anti-IL-23 antibody"}, {"measurement": "IL-23 induced expression of IL-17A, IL-17F, and IL-22 in skin", "setting": "[2]; oral, 1-300 mg/kg b.i.d., days -1 to 3, dose dependent", "value": "attenuated"}, {"measurement": "tissue level at time at 168 h", "setting": "[3]; colon content, 0.033 mg/kg, Study 3, 0.033 mg/kg TID oral, total daily dose 0.1 mg/kg, read-out: Mean concentration in Colon content", "value": 567, "unit": "ng/g"}, {"measurement": "tissue level at time at 168 h", "setting": "[3]; colon content, 0.1 mg/kg, Study 2, 0.1 mg/kg TID oral, total daily dose 0.3 mg/kg, read-out: Mean concentration in Colon content", "value": 1990, "unit": "ng/g"}, {"measurement": "tissue level at time at 168 h", "setting": "[3]; colon content, 0.1 mg/kg, Study 3, 0.1 mg/kg TID oral, total daily dose 0.3 mg/kg, read-out: Mean concentration in Colon content", "value": 3180, "unit": "ng/g"}, {"measurement": "tissue level at time at 168 h", "setting": "[3]; colon content, 0.33 mg/kg, Study 2, 0.33 mg/kg TID oral, total daily dose 1 mg/kg, read-out: Mean concentration in Colon content", "value": 7440, "unit": "ng/g"}, {"measurement": "tissue level at time at 168 h", "setting": "[3]; colon content, 0.33 mg/kg, Study 3, 0.33 mg/kg TID oral, total daily dose 1 mg/kg, read-out: Mean concentration in Colon content", "value": 6050, "unit": "ng/g"}, {"measurement": "tissue level at time at 168 h", "setting": "[3]; colon content, 0.5 mg/kg, Study 2, 0.5 mg/kg BID oral, total daily dose 1 mg/kg, read-out: Mean concentration in Colon content", "value": 11200, "unit": "ng/g"}, {"measurement": "tissue level at time at 168 h", "setting": "[3]; colon content, 1 mg/kg, Study 2, 1 mg/kg QD oral, total daily dose 1 mg/kg, read-out: Mean concentration in Colon content", "value": 11700, "unit": "ng/g"}, {"measurement": "tissue level at time at 168 h", "setting": "[3]; colon content, 1 mg/kg, Study 2, 1 mg/kg TID oral, total daily dose 3 mg/kg, read-out: Mean concentration in Colon content", "value": 22200, "unit": "ng/g"}, {"measurement": "tissue level at time at 168 h", "setting": "[3]; colon content, 1 mg/kg, Study 3, 1 mg/kg TID oral, total daily dose 3 mg/kg, read-out: Mean concentration in Colon content", "value": 20800, "unit": "ng/g"}, {"measurement": "tissue level at time at 168 h", "setting": "[3]; colon content, 3.3 mg/kg, Study 2, 3.3 mg/kg TID oral, total daily dose 10 mg/kg, read-out: Mean concentration in Colon content", "value": 73500, "unit": "ng/g"}, {"measurement": "tissue level at time at 168 h", "setting": "[3]; colon, 0.1 mg/kg, Study 3, 0.1 mg/kg TID oral, total daily dose 0.3 mg/kg, read-out: Mean concentration in Colon", "value": 44.4, "unit": "ng/g"}, {"measurement": "tissue level at time at 168 h", "setting": "[3]; colon, 0.33 mg/kg, Study 3, 0.33 mg/kg TID oral, total daily dose 1 mg/kg, read-out: Mean concentration in Colon", "value": 158, "unit": "ng/g"}, {"measurement": "tissue level at time at 168 h", "setting": "[3]; colon, 1 mg/kg, Study 3, 1 mg/kg TID oral, total daily dose 3 mg/kg, read-out: Mean concentration in Colon", "value": 509, "unit": "ng/g"}, {"measurement": "inhibition of IL-23 stimulated IFNγ production in human whole blood", "setting": "[4]; 10-1000 mg oral once a day, Day 1 and Day 10", "value": "dose dependent inhibition"}, {"measurement": "maximum inhibition of IL-23 induced IFNγ production (mean systemic PD activity)", "setting": "[4]; [6]", "value": "~100", "unit": "%"}, {"measurement": "time for which >50% inhibition of IFNγ production was maintained", "setting": "[4]; [6]", "value": "≥ 8", "unit": "h"}, {"measurement": "mean accumulation for AUC", "setting": "[5]; human", "value": "13-50%"}, {"measurement": "Systemic exposure (Cmax and AUC) versus dose", "setting": "[5]", "value": "approximately dose-proportional"}]}]}
